Measurements reported in ChEMBL document CHEMBL4184300, “Design and characterization of bivalent compounds as potential neuroprotectants for Alzheimer's disease: Impact of the spacer on biological activity” (Bioorg Med Chem Lett, 2018).
Activity calls are given as the source filed them. The calls are words filed in the database; no cut-off is given here.

Legend:
Homo sapiens [1] = species on record: Homo sapiens; experiment: Neuroprotective activity against tetracycline removal-induced cytotoxicity in human MC65 cells assessed as reduction in oxidative stress at 8 mM after 48 hrs by DCFH-DA dye based fluorescence assay; format: functional, cell-based
[2] = Neuroprotective activity against tetracycline removal-induced cytotoxicity in human MC65 cells assessed as increase in cell viability after 72 hrs by MTT assay; format: functional, cell-based; details: MC65, 72 h
Homo sapiens [3] = species on record: Homo sapiens; experiment: Neuroprotective activity against tetracycline removal-induced cytotoxicity in human MC65 cells assessed as reduction in oxidative stress at 0.3 uM after 48 hrs by DCFH-DA dye based fluorescence assay; format: functional, cell-based
[4] = Metal chelating activity assessed as Cu2+-compound complex formation at 50 uM after 10 mins by UV-Vis spectroscopic method
[5] = Metal chelating activity assessed as Fe2+-compound complex formation at 50 uM after 10 mins by UV-Vis spectroscopic method
[6] = Metal chelating activity assessed as Zn2+-compound complex formation at 50 uM after 10 mins by UV-Vis spectroscopic method
Homo sapiens [7] = species on record: Homo sapiens; experiment: Neuroprotective activity against tetracycline removal-induced cytotoxicity in human MC65 cells assessed as reduction in oxidative stress at 32 uM after 48 hrs by DCFH-DA dye based fluorescence assay; format: functional, cell-based
N2a = experiment: Neuroprotective activity in mouse N2A cells assessed as induction of neurite outgrowth at 0.3 uM after 48 hrs by fluorescence microscopic analysis; format: functional, cell-based

SMILES	Activity (Homo sapiens [1])	EC50 [2] [nM]	Activity (Homo sapiens [3])	Activity [4]	Activity [5]	Activity [6]	Activity (Homo sapiens [7])	Activity (N2a)
CC(=O)N[C@@H](CS)C(=O)O	inactive	–	–	–	–	–	–	–
COc1cc(/C=C/C(=O)C(Cc2cn(CCC(=O)NCCCN3CCN(CCCNC(=O)CCN4CCN(CCCN[C@H]5CC[C@@]6(C)C(=CC[C@H]7[C@@H]8CC[C@H]([C@H](C)CCCC(C)C)[C@@]8(C)CC[C@@H]76)C5)CC4)CC3)nn2)C(=O)/C=C/c2ccc(O)c(OC)c2)ccc1O	–	33.7	Active	inactive	inactive	inactive	–	–
COc1cc(/C=C/C(=O)C(Cc2cn(CCCCNC(=O)CCC(=O)NCCCN3CCN(CCCNCCN[C@H]4CC[C@@]5(C)C(=CC[C@H]6[C@@H]7CC[C@H]([C@H](C)CCCC(C)C)[C@@]7(C)CC[C@@H]65)C4)CC3)nn2)C(=O)/C=C/c2ccc(O)c(OC)c2)ccc1O	–	40.6	Active	inactive	inactive	inactive	–	–
COc1cc(/C=C/C(=O)C(Cc2cn(CCCCC(=O)NCCCN3CCN(CCCNCCN[C@H]4CC[C@@]5(C)C(=CC[C@H]6[C@@H]7CC[C@H]([C@H](C)CCCC(C)C)[C@@]7(C)CC[C@@H]65)C4)CC3)nn2)C(=O)/C=C/c2ccc(O)c(OC)c2)ccc1O	–	21.5	Active	inactive	inactive	inactive	–	–
Cc1c(C)c2c(c(C)c1O)CCC(C)(C(=O)O)O2 (stereo not drawn)	–	–	–	–	–	–	Active	–
COc1cc(/C=C/C(=O)C(Cc2cn(CCCCC(=O)NCCCN3CCN(CCCNC(=O)CCC(=O)NCCCN4CCN(CCCNCCN[C@H]5CC[C@@]6(C)C(=CC[C@H]7[C@@H]8CC[C@H]([C@H](C)CCCC(C)C)[C@@]8(C)CC[C@@H]76)C5)CC4)CC3)nn2)C(=O)/C=C/c2ccc(O)c(OC)c2)ccc1O	–	94	Active	inactive	inactive	inactive	–	–
COc1cc(/C=C/C(=O)C(Cc2cn(CCNC(=O)CCC(=O)NCCCN3CCN(CCCNCCN[C@H]4CC[C@@]5(C)C(=CC[C@H]6[C@@H]7CC[C@H]([C@H](C)CCCC(C)C)[C@@]7(C)CC[C@@H]65)C4)CC3)nn2)C(=O)/C=C/c2ccc(O)c(OC)c2)ccc1O	–	34.2	Active	inactive	inactive	inactive	–	–
COc1cc(/C=C/C(=O)C(Cc2cn(CCCCNC(=O)CCC(=O)NCCCN3CCN(CCCNC(=O)CCN4CCN(CCCN[C@H]5CC[C@@]6(C)C(=CC[C@H]7[C@@H]8CC[C@H]([C@H](C)CCCC(C)C)[C@@]8(C)CC[C@@H]76)C5)CC4)CC3)nn2)C(=O)/C=C/c2ccc(O)c(OC)c2)ccc1O	–	30.9	Active	inactive	inactive	inactive	–	–
COc1cc(/C=C/C(=O)C(Cc2cn(CCCCC(=O)NCCCN3CCN(CCCNC(=O)CCN4CCN(CCCN[C@H]5CC[C@@]6(C)C(=CC[C@H]7[C@@H]8CC[C@H]([C@H](C)CCCC(C)C)[C@@]8(C)CC[C@@H]76)C5)CC4)CC3)nn2)C(=O)/C=C/c2ccc(O)c(OC)c2)ccc1O	–	64.3	Active	inactive	inactive	inactive	–	–
COc1cc(/C=C/C(=O)C(Cc2cn(CCC(=O)NCCCN3CCN(CCCNCCN[C@H]4CC[C@@]5(C)C(=CC[C@H]6[C@@H]7CC[C@H]([C@H](C)CCCC(C)C)[C@@]7(C)CC[C@@H]65)C4)CC3)nn2)C(=O)/C=C/c2ccc(O)c(OC)c2)ccc1O	–	23.9	Active	inactive	inactive	inactive	–	inactive
COc1cc(/C=C/C(=O)C(Cc2cn(CCC(=O)NCCCN3CCN(CCCNC(=O)CCC(=O)NCCCN4CCN(CCCNCCN[C@H]5CC[C@@]6(C)C(=CC[C@H]7[C@@H]8CC[C@H]([C@H](C)CCCC(C)C)[C@@]8(C)CC[C@@H]76)C5)CC4)CC3)nn2)C(=O)/C=C/c2ccc(O)c(OC)c2)ccc1O	–	33.9	Active	inactive	inactive	inactive	–	–
COc1cc(/C=C/C(=O)C(Cc2cn(CCNC(=O)CCC(=O)NCCCN3CCN(CCCNC(=O)CCN4CCN(CCCN[C@H]5CC[C@@]6(C)C(=CC[C@H]7[C@@H]8CC[C@H]([C@H](C)CCCC(C)C)[C@@]8(C)CC[C@@H]76)C5)CC4)CC3)nn2)C(=O)/C=C/c2ccc(O)c(OC)c2)ccc1O	–	31.6	Active	inactive	inactive	inactive	–	–
